# Measurements published in patent publication US10351575B2, “Bicyclic urea, thiourea, guanidine and cyanoguanidine compounds useful for the treatment of pain” (Array BioPharma Inc., priority 2012, dated 2019).
# Biological target: His-tagged recombinant human TrkA (Homo sapiens (Human), UniProt P04629)
# Assay: TrkA LanthaScreen Eu Kinase Binding Assay
# Details: averaged IC50; TR-FRET binding, 60 min, 22° C.; read-out: TrkA Enzyme IC50
# Description: TrkA binding activity was determined in a TrkA LanthaScreen™ Eu Kinase Binding Assay. 5 nM His-tagged recombinant human TrkA (6HIS tagged cytoplasmic domain from Invitrogen, Catalog No. PV3144) was incubated with 4 nM Alexa-Fluor® Tracer 236 (Invitrogen Cat. No. PV5592), 2 nM biotinylated anti-His (Invitrogen Cat. No. PV6090), and 2 nM europium-labeled Streptavidin (Invitrogen Cat. No. PV5899), in buffer (25 mM MOPS, pH 7.5, 5 mM MgCl2, 0.005% Triton X-100). Three fold serial dilutions of compounds of the invention in DMSO were added to a final percentage of 2% DMSO. After 60-minute incubation at 22° C., the reaction was measured using the EnVision mutlimode plate reader (PerkinElmer) via TR-FRET dual wavelength detection at […]. The percent of control was calculated using a ratiometric emission factor. The IC50 values were determined by fitting a four parameter model to the percent of control data.
# Chain of His-tagged recombinant human TrkA (P04629 440-796): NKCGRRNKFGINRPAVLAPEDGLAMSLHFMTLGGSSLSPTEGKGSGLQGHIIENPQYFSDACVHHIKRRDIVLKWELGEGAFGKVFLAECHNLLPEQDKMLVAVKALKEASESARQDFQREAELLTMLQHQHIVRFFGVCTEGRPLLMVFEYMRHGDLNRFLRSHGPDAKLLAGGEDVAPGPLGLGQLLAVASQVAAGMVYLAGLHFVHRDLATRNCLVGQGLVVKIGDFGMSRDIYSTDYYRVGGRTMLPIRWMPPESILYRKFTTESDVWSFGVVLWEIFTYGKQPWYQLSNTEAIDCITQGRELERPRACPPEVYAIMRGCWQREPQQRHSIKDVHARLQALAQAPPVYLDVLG
row,IC50,SMILES
1,< 100 nM,"Cc1c(-c2cnn(C)c2)nn(-c2ccccc2)c1NC(=O)N[C@@H]1c2ccccc2C2(CC2)[C@H]1O (relative stereo) [Example 55, 1-(1′,4-dimethyl-1-phenyl-1H,1′H-[3,4′-bipyrazol]-5-yl)-3-(trans-2′-hydroxy-2′,3′-dihydrospiro[cyclopropane-1,1′-inden]-3′-yl)urea]"
2,< 100 nM,"Cc1ncc(-c2nn(-c3ccccc3)c(NC(=O)N[C@@H]3c4ccccc4C4(CC4)[C@H]3O)c2C)cn1 (relative stereo) [Example 56, 1-(trans-2′-hydroxy-2′,3′-dihydrospiro[cyclopropane-1,1′-inden]-3′-yl)-3-(4-methyl-3-(2-methylpyrimidin-5-yl)-1-phenyl-1H-pyrazol-5-yl)urea]"
3,< 100 nM,"COc1ncc(-c2nn(-c3ccccc3)c(NC(=O)N[C@@H]3c4ccccc4C4(CC4)[C@H]3O)c2C)cn1 (relative stereo) [Example 57, 1-(trans-2′-hydroxy-2′,3′-dihydrospiro[cyclopropane-1,1′-inden]-3′-yl)-3-(3-(2-methoxypyrimidin-5-yl)-4-methyl-1-phenyl-1H-pyrazol-5-yl)urea]"
4,< 100 nM,"Cc1c(-c2cnn(C)c2)nn(-c2ccccc2)c1NC(=O)N[C@@H]1c2cc(F)c(F)cc2C2(CC2)[C@H]1O (relative stereo) [Example 58, 1-(trans-5′,6′-difluoro-2′-hydroxy-2′,3′-dihydrospiro[cyclopropane-1,1′-inden]-3′-yl)-3-(1′,4-dimethyl-1-phenyl-1H,1′H-[3,4′-bipyrazol]-5-yl)urea]"
5,< 100 nM,"COc1nn(-c2ccccc2)c(NC(=O)N[C@@H]2c3ccccc3C3(CC3)[C@H]2O)c1C (relative stereo) [Example 60, 1-(trans-2′-hydroxy-2′,3′-dihydrospiro[cyclopropane-1,1′-inden]-3-yl)-3-(3-methoxy-4-methyl-1-phenyl-1H-pyrazol-5-yl)urea]"
6,< 100 nM,"CCOc1nn(-c2ccccc2)c(NC(=O)N[C@@H]2c3ccccc3C3(CC3)[C@H]2O)c1C (relative stereo) [Example 61, 1-(3-ethoxy-4-methyl-1-phenyl-1H-pyrazol-5-yl)-3-(trans-2′-hydroxy-2′,3′-dihydrospiro[cyclopropane-1,1-inden]-3-yl)urea]"
7,< 100 nM,"COc1nn(-c2ccccc2)c(NC(=O)N[C@@H]2c3cc(F)c(F)cc3C3(CC3)[C@H]2O)c1C (relative stereo) [Example 62, 1-(trans-5′,6′-difluoro-2′-hydroxy-2′,3′-dihydrospiro[cyclopropane-1,1′-inden]-3′-yl)-3-(3-methoxy-4-methyl-1-phenyl-1H-pyrazol-5-yl)urea]"
8,< 100 nM,"Cc1c(-c2cnn(C)c2)nn(-c2ccccc2)c1NC(=O)N[C@@H]1c2cc(F)ccc2C2(CC2)[C@H]1O (relative stereo) [Example 63, 1-(1′,4-dimethyl-1-phenyl-1H,1′H-[3,4′-bipyrazol]-5-yl)-3-(trans-5′-fluoro-2′-hydroxy-2′,3′-dihydrospiro[cyclopropane-1,1′-inden]-3′-yl)urea]"
9,< 100 nM,"Cc1c(-c2cnn(C)c2)nn(-c2ccccc2)c1NC(=O)N[C@@H]1c2ccc(F)cc2C2(CC2)[C@H]1O (relative stereo) [Example 64, 1-(1′,4-dimethyl-1-phenyl-1H,1′H-[3,4′-bipyrazol]-5-yl)-3-(trans-6′-fluoro-2′-hydroxy-2′,3′-dihydrospiro[cyclopropane-1,1′-inden]-3′-yl)urea]"
10,< 100 nM,"Cc1c(NC(=O)N[C@@H]2c3ccccc3C(C)(C)C[C@H]2O)n(-c2ccccc2)[nH]c1=O (relative stereo) [Example 95, 1-(trans-2-hydroxy-4,4-dimethyl-1,2,3,4-tetrahydronaphthalen-1-yl)-3-(4-methyl-5-oxo-2-phenyl-2,5-dihydro-1H-pyrazol-3-yl)urea]"
11,< 100 nM,"COc1nn(-c2ccccc2)c(NC(=O)N[C@@H]2c3ccccc3C(C)(C)C[C@H]2O)c1C (relative stereo) [Example 97, 1-(trans-2-hydroxy-4,4-dimethyl-1,2,3,4-tetrahydronaphthalen-1-yl)-3-(3-methoxy-4-methyl-1-phenyl-1H-pyrazol-5-yl)urea]"
12,< 100 nM,"COC(=O)c1ccc2c(c1)[C@@H](NC(=O)Nc1c(C)c(C)nn1-c1ccccc1)[C@H](O)CC2(C)C (relative stereo) [Example 99, trans-methyl 8-(3-(3,4-dimethyl-1-phenyl-1H-pyrazol-5-yl)ureido)-7-hydroxy-5,5-dimethyl-5,6,7,8-tetrahydronaphthalene-2-carboxylate]"
13,< 100 nM,"Cc1c(-c2cnn(C)c2)nn(-c2ccccc2)c1NC(=O)N[C@@H]1c2ccccc2CC[C@H]1O (relative stereo) [Example 101, 1-(1′,4-dimethyl-1-phenyl-1H,1′H-[3,4′-bipyrazol]-5-yl)-3-(trans-2-hydroxy-1,2,3,4-tetrahydronaphthalen-1-yl)urea]"
14,< 100 nM,"COCc1ccc2c(c1)[C@@H](NC(=O)Nc1c(C)c(-c3cnn(C)c3)nn1-c1ccccc1)[C@H](O)CC2(C)C (relative stereo) [Example 102, 1-(1′,4-dimethyl-1-phenyl-1H,1′H-[3,4′-bipyrazol]-5-yl)-3-(trans-2-hydroxy-7-(methoxymethyl)-4,4-dimethyl-1,2,3,4-tetrahydronaphthalen-1-yl)urea]"
15,< 100 nM,"Cc1c(-c2cnn(C)c2)nn(-c2ccccc2)c1NC(=O)N[C@@H]1c2cc(Cl)ccc2C(C)(C)C[C@H]1O (relative stereo) [Example 104, 1-(trans-7-chloro-2-hydroxy-4,4-dimethyl-1,2,3,4-tetrahydronaphthalen-1-yl)-3-(1′,4-dimethyl-1-phenyl-1H,1′H-[3,4′-bipyrazol]-5-yl)urea]"
16,< 100 nM,"Cc1c(-c2cnn(C)c2)nn(-c2ccccc2)c1NC(=O)N[C@@H]1c2ccccc2C(C)(C)C[C@H]1O (relative stereo) [Example 105, 1-(1′,4-dimethyl-1-phenyl-1H,1′H-[3,4′-bipyrazol]-5-yl)-3-(trans-2-hydroxy-4,4-dimethyl-1,2,3,4-tetrahydronaphthalen-1-yl)urea]"
17,< 100 nM,"Cc1c(-c2ccc(=O)n(C)c2)nn(-c2ccccc2)c1NC(=O)N[C@@H]1c2ccccc2C(C)(C)C[C@H]1O (relative stereo) [Example 106, 1-(trans-2-hydroxy-4,4-dimethyl-1,2,3,4-tetrahydronaphthalen-1-yl)-3-(4-methyl-3-(1-methyl-6-oxo-1,6-dihydropyridin-3-yl)-1-phenyl-1H-pyrazol-5-yl)urea]"
18,< 100 nM,"Cc1c(-c2ccn(C)c(=O)c2)nn(-c2ccccc2)c1NC(=O)N[C@@H]1c2ccccc2C(C)(C)C[C@H]1O (relative stereo) [Example 107, 1-(trans-2-hydroxy-4,4-dimethyl-1,2,3,4-tetrahydronaphthalen-1-yl)-3-(4-methyl-3-(1-methyl-2-oxo-1,2-dihydropyridin-4-yl)-1-phenyl-1H-pyrazol-5-yl)urea]"
19,< 100 nM,"Cc1ncc(-c2nn(-c3ccccc3)c(NC(=O)N[C@@H]3c4ccccc4CC[C@H]3O)c2C)cn1 (relative stereo) [Example 118, 1-(trans-2-hydroxy-1,2,3,4-tetrhydronaphthalen-1-yl)-3-(4-methyl-3-(2-methylpyrimidin-5-yl)-1-phenyl-1H-pyrazol-5-yl)urea]"
